Molecular target: T1, KCNQ2/3 channels (Homo sapiens, UniProt O43525+O43526)
T1 construct: expressed in transfected cells
Test: Fluorescence assay using a voltage sensitive dye (fluorimetry)
Type: cell-based
Details: CHO-K1 cells expressing KCNQ2/3; for Emax: CHO-K1, plateau effect relative to saturated retigabine (50 μM) = 100%, negative values = antagonistic, read-out: Fluorimetry % efficacy (retigabine = 100%); for EC50: IC50 where % efficacy is negative, read-out: Fluorimetry EC50/IC50

T1 sequence (O43526 whole entry): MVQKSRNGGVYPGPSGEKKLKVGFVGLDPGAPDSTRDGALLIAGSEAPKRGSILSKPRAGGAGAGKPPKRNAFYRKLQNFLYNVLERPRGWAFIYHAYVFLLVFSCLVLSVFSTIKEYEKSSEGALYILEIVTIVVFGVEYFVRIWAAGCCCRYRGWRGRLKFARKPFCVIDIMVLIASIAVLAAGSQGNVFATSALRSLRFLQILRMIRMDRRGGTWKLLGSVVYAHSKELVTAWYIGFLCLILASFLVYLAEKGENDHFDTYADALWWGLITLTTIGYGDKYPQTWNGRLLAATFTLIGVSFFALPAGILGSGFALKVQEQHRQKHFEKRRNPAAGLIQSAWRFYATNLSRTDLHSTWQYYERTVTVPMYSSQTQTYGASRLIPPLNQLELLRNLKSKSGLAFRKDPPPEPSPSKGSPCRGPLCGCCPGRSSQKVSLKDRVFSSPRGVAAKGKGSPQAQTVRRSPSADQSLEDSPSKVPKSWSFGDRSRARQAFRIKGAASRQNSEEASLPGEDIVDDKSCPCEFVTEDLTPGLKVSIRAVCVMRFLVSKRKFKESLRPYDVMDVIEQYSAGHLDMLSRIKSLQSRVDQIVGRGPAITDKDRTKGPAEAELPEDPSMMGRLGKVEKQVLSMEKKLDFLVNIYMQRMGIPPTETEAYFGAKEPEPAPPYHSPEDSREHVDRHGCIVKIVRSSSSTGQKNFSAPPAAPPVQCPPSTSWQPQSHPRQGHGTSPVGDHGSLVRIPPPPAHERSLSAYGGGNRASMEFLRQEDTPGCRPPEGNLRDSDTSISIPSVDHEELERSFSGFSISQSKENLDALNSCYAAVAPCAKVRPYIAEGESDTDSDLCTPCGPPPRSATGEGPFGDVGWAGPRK
T1 sequence (O43525 whole entry): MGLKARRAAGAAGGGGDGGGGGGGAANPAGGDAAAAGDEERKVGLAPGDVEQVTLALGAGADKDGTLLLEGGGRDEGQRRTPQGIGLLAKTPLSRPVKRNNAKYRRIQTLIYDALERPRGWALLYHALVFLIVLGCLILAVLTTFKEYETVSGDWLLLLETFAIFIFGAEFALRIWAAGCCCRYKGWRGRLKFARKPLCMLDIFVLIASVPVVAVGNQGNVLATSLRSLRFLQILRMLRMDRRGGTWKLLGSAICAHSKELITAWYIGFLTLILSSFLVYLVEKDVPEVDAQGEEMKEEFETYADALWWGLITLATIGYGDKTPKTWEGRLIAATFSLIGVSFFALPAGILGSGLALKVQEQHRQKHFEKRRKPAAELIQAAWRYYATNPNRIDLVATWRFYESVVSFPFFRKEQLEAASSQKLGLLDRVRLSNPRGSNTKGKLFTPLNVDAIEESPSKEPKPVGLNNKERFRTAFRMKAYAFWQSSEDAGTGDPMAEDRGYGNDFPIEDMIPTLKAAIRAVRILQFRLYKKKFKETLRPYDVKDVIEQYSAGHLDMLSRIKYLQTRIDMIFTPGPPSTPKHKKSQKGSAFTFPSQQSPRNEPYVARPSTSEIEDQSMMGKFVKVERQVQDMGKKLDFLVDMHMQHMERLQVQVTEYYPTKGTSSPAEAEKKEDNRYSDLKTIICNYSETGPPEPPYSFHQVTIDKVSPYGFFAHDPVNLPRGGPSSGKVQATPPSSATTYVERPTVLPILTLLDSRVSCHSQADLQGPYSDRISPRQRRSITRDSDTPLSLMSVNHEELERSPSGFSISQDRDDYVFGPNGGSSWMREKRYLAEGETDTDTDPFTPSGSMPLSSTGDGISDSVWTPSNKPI

Structure (SMILES) | Emax | EC50
CCSc1nc(N2CCOCC2)cc(C)c1C(=O)NCc1cc(F)ccc1F [Example 101, N-[(2,5-Difluoro-phenyl)-methyl]-2-ethylsulfanyl-4-methyl-6-morpholin-4-yl-pyridine-3-carboxylic acid amide] | 100% | 133 nM
CCSc1nc(N2CCN(C(C)=O)CC2)cc(C)c1C(=O)NCc1cccc(F)c1 [Example 144, 6-(4-Acetyl-piperazin-1-yl)-2-ethylsulfanyl-N-[(3-fluorophenyl)-methyl]-4-methyl-pyridine-3-carboxylic acid amide] | 59% | 
CCSc1nc(N2CCN(C)CC2)cc(C)c1C(=O)NCc1cccc(F)c1 [Example 31, 2-Ethylsulfanyl-N-[(3-fluorophenyl)-methyl]-4-methyl-6-(4-methyl-piperazin-1-yl)-pyridine-3-carboxylic acid amide] | 23% | 
CCSc1nc(N2CCOC(C)(C)C2)cc(C)c1C(=O)NCc1cccc(F)c1 [Example 252, 6-(2,2-Dimethyl-morpholin-4-yl)-2-ethylsulfanyl-N-[(3-fluorophenyl)-methyl]-4-methyl-pyridine-3-carboxylic acid amide] | 137% | 274 nM
CCSc1nc(N2CCOCC2)cc(C)c1C(=O)NCCCC(C)(C)F [Example 319, 2-Ethylsulfanyl-N-(4-fluoro-4-methyl-pentyl)-4-methyl-6-morpholin-4-yl-pyridine-3-carboxylic acid amide] | 233% | 348 nM
CCN(C)c1nc(N2CCOC[C@H]2C)cc(C)c1C(=O)NCc1ccc(F)cc1 [Example 173, 2-(Ethyl-methyl-amino)-N-[(4-fluorophenyl)-methyl]-4-methyl-6-[(3R)-3-methyl-morpholin-4-yl]-pyridine-3-carboxylic acid amide] | 259% | 201 nM
CSc1nc(N2CCOCC2)cc(C)c1C(=O)NCc1ccc(F)c(F)c1 [Example 155, N-[(3,4-Difluoro-phenyl)-methyl]-4-methyl-2-methylsulfanyl-6-morpholin-4-yl-pyridine-3-carboxylic acid amide] | 158% | 152 nM
CCSc1nc(N2CCO[C@H](C)C2)cc(C)c1C(=O)NCc1cccc(F)c1 [Example 139, 2-Ethylsulfanyl-N-[(3-fluorophenyl)-methyl]-4-methyl-6-[(2R)-2-methyl-morpholin-4-yl]-pyridine-3-carboxylic acid amide] | 146% | 770 nM
CCSc1nc(N2CCOCC2)cc(C)c1C(=O)NCCCc1ccccc1F [Example 129, 2-Ethylsulfanyl-N-[3-(2-fluorophenyl)-propyl]-4-methyl-6-morpholin-4-yl-pyridine-3-carboxylic acid amide] | 206% | 221 nM
CCSc1nc(N(C)c2ccncc2)cc(C)c1C(=O)NCc1cccc(F)c1 [Example 200, 2-Ethylsulfanyl-N-[(3-fluorophenyl)-methyl]-4-methyl-6-(methyl-pyridin-4-yl-amino)-pyridine-3-carboxylic acid amide] | 22% | 
CCSc1nc(N2CCOCC2)cc(C)c1C(=O)NCc1ccc(COC)cc1 [Example 146, 2-Ethylsulfanyl-N-[[4-(methoxymethyl)-phenyl]-methyl]-4-methyl-6-morpholin-4-yl-pyridine-3-carboxylic acid amide] | 159% | 2490 nM
CCSc1nc(N2CCOCC2)cc(C)c1C(=O)NCCCC1(C)CC1 [Example 350, 2-Ethylsulfanyl-4-methyl-N-[3-(1-methyl-cyclopropyl)-propyl]-6-morpholin-4-yl-pyridine-3-carboxylic acid amide] | 226% | 79 nM
Cc1cc(N2CCOCC2)nc(OCC2CC2)c1C(=O)NCc1ccc(Cl)cc1 [Example 271, N-[(4-Chlorophenyl)-methyl]-2-(cyclopropyl-methoxy)-4-methyl-6-morpholin-4-yl-pyridine-3-carboxylic acid amide] | 128% | 93 nM
CCCc1nc(N2CCOCC2)cc(C)c1C(=O)NCc1ccc(C(F)(F)F)cc1 [Example 323, 4-Methyl-6-morpholin-4-yl-2-propyl-N-[[4-(trifluoromethyl)-phenyl]-methyl]pyridine-3-carboxylic acid amide] | 130% | 102 nM
CCSc1nc(N2CCOCC2)cc(C)c1C(=O)NCc1cccc(S(C)(=O)=O)c1 [Example 231, 2-Ethylsulfanyl-4-methyl-N-[(3-methylsulfonyl-phenyl)-methyl]-6-morpholin-4-yl-pyridine-3-carboxylic acid amide] | 61% | 10400 nM
CCSc1nc(N2CCOCC2)cc(C)c1C(=O)NCc1ccc(OC(F)(F)F)cc1 [Example 97, 2-Ethylsulfanyl-4-methyl-6-morpholin-4-yl-N-[[4-(trifluoromethyloxy)-phenyl]methyl]-pyridine-3-carboxylic acid amide] | 136% | 67 nM
CCSc1nc(N2CCOC[C@H]2C)cc(C)c1C(=O)NCCCC(F)(F)F [Example 235, 2-Ethylsulfanyl-4-methyl-6-[(3R)-3-methyl-morpholin-4-yl]-N-(4,4,4-trifluoro-butyl)-pyridine-3-carboxylic acid amide] | 235% | 196 nM
Cc1cc(N2CCOCC2)nc(C2CC2)c1C(=O)NCc1cc(F)cc(F)c1 [Example 333, 2-Cyclopropyl-N-[(3,5-difluoro-phenyl)-methyl]-4-methyl-6-morpholin-4-yl-pyridine-3-carboxylic acid amide] | 169% | 98 nM
Cc1cc(N2CCOCC2)nc(N2CCCC2)c1C(=O)NCc1cccc(F)c1 [Example 24, N-[(3-Fluorophenyl)-methyl]-4-methyl-6-morpholin-4-yl-2-pyrrolidin-1-yl-pyridine-3-carboxylic acid amide] | 210% | 308 nM
CCN(C)c1nc(N2CCOCC2)cc(C)c1C(=O)NCCCC(F)(F)F [Example 190, 2-(Ethyl-methyl-amino)-4-methyl-6-morpholin-4-yl-N-(4,4,4-trifluoro-butyl)-pyridine-3-carboxylic acid amide] | 207% | 2500 nM
CSc1nc(N2CCOC[C@H]2C)cc(C)c1C(=O)NCc1ccc(F)cc1 [Example 176, N-[(4-Fluorophenyl)-methyl]-4-methyl-6-[(3R)-3-methyl-morpholin-4-yl]-2-methylsulfanyl-pyridine-3-carboxylic acid amide] | 215% | 136 nM
CCSc1nc(N(C)CC2CCCO2)cc(C)c1C(=O)NCc1cccc(F)c1 (stereo not drawn) [Example 294, 2-Ethylsulfanyl-N-[(3-fluorophenyl)-methyl]-4-methyl-6-[methyl-(tetrahydro-furan-2-yl-methyl)-amino]-pyridine-3-carboxylic acid amide] | 129% | 1030 nM
CCC(C)c1nc(N2CCOCC2)cc(C)c1C(=O)NCc1cccc(F)c1 (stereo not drawn) [Example 216, N-[(3-Fluorophenyl)-methyl]-4-methyl-2-(1-methyl-propyl)-6-morpholin-4-yl-pyridine-3-carboxylic acid amide] | 181% | 69 nM
Cc1cc(N2CCOCC2)nc(C(C)(C)C)c1C(=O)NCc1cccc(F)c1 [Example 250, 2-tert-Butyl-N-[(3-fluorophenyl)-methyl]-4-methyl-6-morpholin-4-yl-pyridine-3-carboxylic acid amide] | 196% | 371 nM
